IC50 and inhibition data for one compound are collected here from publication PMC11121628, “Regulation of T Lymphocyte Functions through Calcium Signaling Modulation by Nootkatone” (International Journal of Molecular Sciences, 2024).

Common to all, as to format: cell-based
For one assay, the target named is T1, ORAI1 (CRAC channel) (Homo sapiens, UniProt Q96D31).
T1 construct: human ORAI1 (hORAI1) co-transfected with hSTIM1 in HEK293T cells; with STIM1
As to the kind of experiment: whole-cell patch clamp of ICRAC in transfected HEK293T cells. On the technique in general: The patch-clamp technique gives a direct electrical read-out from membranes.

A further assay deals with T2, KV1.3 (Homo sapiens, UniProt P22001).
T2 construct: gene KCNA3; KV1.3 current in Jurkat T cells
As to the kind of experiment: whole-cell patch clamp of IKV1.[…] in Jurkat T cells.

The target in the next assay is T3, KCa3.1 (Homo sapiens, UniProt O15554).
T3 construct: gene KCNN4
As to the kind of experiment: whole-cell patch clamp of IKCa3.[…] in stable HEK293T cells. As to conditions: HEK-293T.

T2 sequence (P22001 whole entry): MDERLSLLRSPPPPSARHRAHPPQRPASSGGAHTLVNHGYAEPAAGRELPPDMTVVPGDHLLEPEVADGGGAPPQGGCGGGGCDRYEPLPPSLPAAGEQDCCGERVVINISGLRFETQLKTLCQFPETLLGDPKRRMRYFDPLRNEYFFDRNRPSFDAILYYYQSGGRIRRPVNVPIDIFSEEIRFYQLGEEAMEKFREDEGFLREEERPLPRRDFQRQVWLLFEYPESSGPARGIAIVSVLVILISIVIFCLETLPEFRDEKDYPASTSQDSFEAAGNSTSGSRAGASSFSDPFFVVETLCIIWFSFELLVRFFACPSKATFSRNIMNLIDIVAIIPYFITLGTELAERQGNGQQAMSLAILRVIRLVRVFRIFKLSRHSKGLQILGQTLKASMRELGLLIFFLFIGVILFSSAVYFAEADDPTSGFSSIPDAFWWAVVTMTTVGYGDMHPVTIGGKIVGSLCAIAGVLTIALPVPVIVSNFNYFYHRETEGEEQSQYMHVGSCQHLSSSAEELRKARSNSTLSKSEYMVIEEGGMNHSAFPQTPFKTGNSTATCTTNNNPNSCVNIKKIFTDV
T1 sequence (Q96D31 whole entry): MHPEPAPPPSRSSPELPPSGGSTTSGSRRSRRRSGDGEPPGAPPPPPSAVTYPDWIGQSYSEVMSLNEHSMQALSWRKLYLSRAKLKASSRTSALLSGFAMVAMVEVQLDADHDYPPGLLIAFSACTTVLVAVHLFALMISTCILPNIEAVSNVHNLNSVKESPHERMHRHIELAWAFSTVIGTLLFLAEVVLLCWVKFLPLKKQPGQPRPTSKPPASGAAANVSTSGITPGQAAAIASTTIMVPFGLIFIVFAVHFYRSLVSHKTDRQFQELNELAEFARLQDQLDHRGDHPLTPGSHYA
T1 sequence (Q13586 23-685, further chain): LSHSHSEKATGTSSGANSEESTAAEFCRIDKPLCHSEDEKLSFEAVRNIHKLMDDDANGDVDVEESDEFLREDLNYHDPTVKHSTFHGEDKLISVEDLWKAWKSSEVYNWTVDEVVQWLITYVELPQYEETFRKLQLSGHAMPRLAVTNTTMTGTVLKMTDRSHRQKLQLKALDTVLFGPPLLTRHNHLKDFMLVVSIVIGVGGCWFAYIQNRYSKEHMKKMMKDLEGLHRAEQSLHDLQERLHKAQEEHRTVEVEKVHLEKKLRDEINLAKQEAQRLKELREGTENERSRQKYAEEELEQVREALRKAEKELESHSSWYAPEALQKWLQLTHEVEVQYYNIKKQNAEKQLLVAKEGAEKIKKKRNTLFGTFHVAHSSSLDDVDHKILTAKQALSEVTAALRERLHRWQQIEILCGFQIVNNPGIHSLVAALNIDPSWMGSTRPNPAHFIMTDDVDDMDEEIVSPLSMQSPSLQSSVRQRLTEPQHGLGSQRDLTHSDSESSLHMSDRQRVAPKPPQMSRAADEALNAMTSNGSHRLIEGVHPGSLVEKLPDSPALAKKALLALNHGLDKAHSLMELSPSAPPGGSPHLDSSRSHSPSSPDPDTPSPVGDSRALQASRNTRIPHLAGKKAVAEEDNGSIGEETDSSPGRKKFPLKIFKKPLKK
T3 sequence (O15554 whole entry): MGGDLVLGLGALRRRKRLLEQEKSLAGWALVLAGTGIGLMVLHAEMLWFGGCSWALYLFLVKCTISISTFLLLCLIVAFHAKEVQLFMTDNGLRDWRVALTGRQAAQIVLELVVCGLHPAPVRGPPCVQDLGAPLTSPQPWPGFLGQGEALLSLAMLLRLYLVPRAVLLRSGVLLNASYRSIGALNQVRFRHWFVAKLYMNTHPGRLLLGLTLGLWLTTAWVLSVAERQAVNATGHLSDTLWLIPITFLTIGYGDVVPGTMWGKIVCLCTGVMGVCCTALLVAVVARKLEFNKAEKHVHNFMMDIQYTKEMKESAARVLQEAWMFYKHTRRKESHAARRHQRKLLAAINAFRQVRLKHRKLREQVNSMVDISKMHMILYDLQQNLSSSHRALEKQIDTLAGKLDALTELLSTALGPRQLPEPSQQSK

Broadly, the IC50 is the concentration that inhibits the measured activity by half. As a reminder, the inhibition is how much of the control response was suppressed. Low values mean a response near the control, high ones a response far below the control. Regarding `C=C(C)[C@@H]1CCC2=CC(=O)C[C@@H](C)[C@]2(C)C1` [nootkatone], the IC50 was around 12.6 µM at ORAI1 (CRAC channel) and 10.8 µM at KV1.3. The compound also yielded an inhibition at 100 µM at KCa3.1 of around 20%.
